Reference: US20250195432A1, “METHODS FOR PREPARING AND CHARACTERIZING ZEIN-FUCOIDAN CONJUGATED NANO-LIPOSOME FOR PHYTOL ENCAPSULATION” (Zhejiang Academy of Forestry, priority 2023, published 2025)

Assays:
[1] = Photostability under UV light, phytol retention by GC-MS; type: physicochemical; conditions: after 16 hours of UV exposure; free phytol in ethanol
Procedure: • exposing a sample to ultraviolet (UV) light for various irradiation durations: […], 90 minutes, 120 minutes, 150 minutes, 180 minutes, 210 minutes, 240 minutes, 270 minutes, […]; and determining retention of phytol content using GC-MS.
To assess the photostability of phytol loaded in nanoparticles (P-ZF, P-NL, and P-NL-ZF) as well as free phytol dissolved in ethanol, samples were irradiated under UV light for various durations: […], 90 minutes, 120 minutes, 150 minutes, 180 minutes, 210 minutes, 240 minutes, 270 minutes, […] The content of retained phytol was determined using GC-MS as described in Section 2.5.2. The calculation formula for retention rate is given as follows: […]

[2] = Hydroxyl radical scavenging activity; type: biochemical; conditions: 37° C., 30 minutes, absorbance 536 nm
Procedure: • mixing 1.00 mL of the nanoliposomes with 1.00 mL of 9.00 mmol/L salicylic acid ethanol solution, 1.00 mL of 9.00 mmol/L FeCl2, and 1.00 mL of 8.80 mmol/L H2O2; incubating a resulting mixture in the dark at 37° C. for 30 minutes; measuring an absorbance of a reaction mixture at 536 nm using a multifunctional microplate reader and calculating a hydroxyl radical scavenging rate;
A sample of the nanoliposome (1.00 mL) was mixed with an ethanol solution of salicylic acid (1.00 mL, 9.00 mmol/L), FeCl2 (1.00 mL, 9.00 mmol/L), and H2O2(1.00 mL, 8.80 mmol/L) and incubated in the dark at 37° C. for 30 minutes. The absorbance of the reaction mixture was measured at 536 nm using a multifunctional microplate reader (Varioskan Flash, Thermo Fisher Scientific, Massachusetts, USA). The hydroxyl radical scavenging rate was calculated using the following formula: […]

HepG2 cells [3] = assay: Intracellular ROS level (DCFH-DA) in HepG2 cells with TBHP-induced oxidative damage; type: cell-based, human; conditions: for ROS level (percentage of the negative control group): HepG2, pre-treatment 100 μg/mL phytol 24 h, then TBHP (10 μg/mL)
Procedure: • […], P-ZF, P-NL, and P-NL-ZF to the plate for another 24 hours of incubation; […]; measuring a cell survival rate, an intracellular reactive oxygen species (ROS) level, malondialdehyde (MDA) content, and superoxide dismutase (SOD) activity.
(§1) • placing the digested HepG2 cells in a culture dish and performing a treatment as in step (O); adding 10.00 μM 2′,7′-dichlorodihydrofluorescein diacetate (DCFH-DA) and incubating for 0.5 hours, followed by washing with PBS (pH 7.4); allowing intracellular esterase to cleave the DCFH-DA, which is then oxidized to highly fluorescent dichlorofluorescein in the presence of ROS; measuring a fluorescence intensity of the 96-well plate using a multifunctional microplate reader at an excitation wavelength of 485 nm and an emission wavelength of 528 nm, expressing the intracellular ROS level as a percentage of the negative control group; • assessing the SOD activity and the MDA content by culturing the digested HepG2 cells for 24 hours; after the treatment as in step (O), adding 300 μL of lysis buffer and incubating on ice for 30 minutes; centrifuging at 11,000×g for 5 minutes at 4° C. and collecting a resulting supernatant; and quantifying the SOD activity and the MDA content according to instructions of SOD and MDA assay kits; and
• seeding the digested cells at a density of 3×10^5 cells per well into a 6-well plate and incubating for 24 hours; after incubation, aspirating a culture medium and continuing with the grouping and treatment as in step (0); after 24 hours, replacing an original solution with 25 μM DCFH-DA solution and incubating for 60 minutes; washing the cells twice with PBS to remove unabsorbed probes; observing a fluorescence generated within the cells by placing the 6-well plate under a fluorescence microscope equipped with an FITC fluorescence channel.
HepG2 cells, after digestion, were seeded at a density of 1×10^5 cells/well in a 96-well cell culture plate and were placed in a cell culture incubator. […]

HepG2 cells [4] = assay: SOD activity in HepG2 cells with TBHP-induced oxidative damage; type: cell-based, human; conditions: HepG2, TBHP (10 μg/mL)
Procedure: (§2) • culturing the digested HepG2 cells for 24 hours and then adding […] concentrations of PHY, P-ZF, P-NL, and P-NL-ZF to the plate for another 24 hours of incubation; […]; measuring a cell survival rate, an intracellular reactive oxygen species (ROS) level, malondialdehyde (MDA) content, and superoxide dismutase (SOD) activity.
as §1, with “kits; and […]” for “kits; and”

HepG2 cells [5] = assay: TBHP-induced oxidative damage concentration, cell viability by CCK-8; type: cell-based, human; conditions: HepG2, TBHP 10 μg/mL, 24 hours
Procedure: HepG2 cells, after digestion, were seeded at a density of 1×10^5 cells/well in a 96-well cell culture plate and were incubated in a cell culture incubator. […] After 24 hours of incubation, the culture medium was removed, and the working solutions of TBHP at different concentrations were added to the wells, followed by an additional 24 hours of incubation. After the incubation period, the vitality of the HepG2 cells was assessed using the CCK-8 method, as detailed in section 2.6.4.

HepG2 cells [6] = assay: MDA content in HepG2 cells with TBHP-induced oxidative damage; type: cell-based, human; conditions: HepG2, TBHP (10 μg/mL)
Procedure: as §2
as §1, with “kits; and […]” for “kits; and”

Row | Compound | retention rate of phytol under UV [1] | scavenging capability against •OH radicals [2] | reduction of ROS level compared to the positive control (328.16%) (HepG2 cells [3]; HepG2, TBHP (10 μg/mL)) | ROS level (percentage of the negative control group) (HepG2 cells [3]) | SOD activity (HepG2 cells [4]) | cell viability (HepG2 cells [5]) | MDA level (lipid peroxidation) (HepG2 cells [6])
1 | (2E,3,7R,11R,15)-tetramethyl-hexadecen-1-ol [PHY] | 1.21% | 40% | 97.44% | 230.72% | 11.61 U/mg protein | – | –
2 | CC(C)(C)OO [TBHP, Tert-Butyl Hydrogen Peroxide] | – | – | – | 328.42% | 8.43 U/mg protein | 65.67% | significant increase in MDA
